The source of these data is publication PMC7217877, “N-AS-triggered SPMs are direct regulators of microglia in a model of Alzheimer’s disease” (Nature Communications, 2020).

This assay deals with immortalized human microglia. As to the kind of experiment: ac-S565 COX2 in human microglia (western blot, immunofluorescence, Supplementary Fig 6b,c). Format: cell-based. Details: ac-S565 COX2 (western blot): scale not given here. The settings on record: for ac-S565 COX2 (western blot): sFig 6b. The protocol:
To confirm the generation and roles of N-AS in neurons, cells from E18 C57BL/6 mice were prepared as previously described. Cortices were dissected and then dissociated followed by incubation in papain (Worthington) at 37 °C for 15 min. Neurons were plated on poly-L-lysine-coated coverslips with neuronal culture medium, serum-free Neurobasal medium (Gibco) containing 2% B27 supplements (Gibco), 1 mM Glutamax supplement (Gibco), and 100 U ml^−1 streptomycin/ 100 U ml^−1 penicillin (Gibco) at 37 °C in a humidified atmosphere of 5% CO2. Aβ 1–42 (10 μM, 24 h, Invitrogen, 03112) was exposed to neurons and the cells were analyzed for the generation and roles of N-AS. Primary astrocyte cultures were prepared from C57BL/6 mice as described previously. In brief, after removal of the meninges, postnatal day 7 (P7) mouse brain tissues were minced and incubated in a rocking water bath at 37 °C for 30 min in the presence of 0.25% trypsin-EDTA (Sigma-Aldrich). Enzyme-digested dissociated cells were triturated with astrocyte-specific medium (DMEM/F12 containing 10% FBS and 1% penicillin-streptomycin) and centrifuged at 155×g for 8 min. The pellet was resuspended in astrocyte-specific medium and passed through a 40-μm cell strainer. The filtrate was allowed pre-adherence for 30 min to remove any contamination from fibroblasts before being seeded in dishes and the addition of astrocyte-specific medium. To split the cells, Ara-C was added to the dishes and they were then placed in a heated shaker for 6–7 h. The medium was removed from the dishes, and trypsin-EDTA was added to the dish and incubated at 37 °C for 5–10 min. After centrifugation at 155×g for 8 min, the supernatant was removed, and the astrocytes were maintained in culture by feeding […] with astrocyte-specific medium. Primary microglia cultures were prepared from C57BL/6 mice as described previously. In brief, the cortices of 2-months-old mice were minced in Hibernate A (Gibco)/B27 supplements (Gibco) medium and dissociated using papain (Worthington) solution. After tissue trituration, cells were separated by Optiprep (Sigma-Aldrich) density gradient centrifugation. Microglia were plated with microglia-specific medium (DMEM/F12 containing 10% FBS and 1% penicillin-streptomycin). The immortalized human microglia (Applied Biologics Materials, T0251) were cultured in PriGrow III (Applied Biologics Materials, TM003) (supplemented with 10% FBS and 1% penicillin-streptomycin) at 37 °C in a humidified atmosphere of 5% CO2. […] The human microglia treated with Aβ 1–42 and/or zileuton was incubated with N-AS (2.5 μM, 2 h, Sigma-Aldrich, 01912), and were analyzed for the generation and roles of N-AS.
Thioflavin S (Sigma-Aldrich) staining was carried out according to previously described procedures. We used 6E10 (mouse, 1:100, Signet, SIG39300), anti-20G10 (mouse, 1:1000, provided by D. R. Howlett, GlaxoSmithKline, Harlow, Essex, UK) for Aβ42, anti-G30 (rabbit, 1:1000, provided by D. R. Howlett) for Aβ40, SMA (mouse, 1:400, Sigma-Aldrich, A2547), AT8 (mouse, 1:500, Thermo Fisher Scientific, MN1020), Caspase-3 (mouse, 1:200, Novus Biologicals, NB100-56708), ac-S565 (rabbit, 1:100), COX2 (mouse, 1:250, Thermo Fisher Scientific, 35-8200), Iba1 (rabbit, 1:500, Wako, 019-19941 and goat, Abcam, ab5076), NeuN (mouse, 1:500, Millipore, MAB177), GFAP (rabbit, 1:500, Dako, N1506 and chicken, 1:500, Abcam, ab4674), and Lamp1 (mouse, 1:200, Abcam, ab24170). The sections were analyzed with a laser-scanning confocal microscope (FV3000; Olympus) or with a BX51 microscope (Olympus). MetaMorph software (Molecular Devices) was used to quantification. Three-dimensional reconstruction of microglia was recorded and analyzed using IMARIS software (Bitplane)[11]. […]
Background: Immunoblotting shows a protein as a band on a membrane.

Where “and” joins values, the source holds several entries; their conditions need not be identical. Equal values may be shown once.

For the molecule `CC(=O)SCCNC(=O)CCNC(=O)[C@H](O)C(C)(C)COP(=O)(O)OP(=O)(O)OC[C@H]1O[C@@H](n2cnc3c(N)ncnc32)[C@H](O)[C@@H]1OP(=O)(O)O` [Acetyl-CoA, acetyl-CoA], the “ac-S565 COX2 (western blot)” value (human microglia, Ab 50mM +) was 1.441 and 1.037 and 1.136 and 1.4813 and 1.401 and 1.309.
In the case of `CCCCCCCCCCCCC/C=C/[C@@H](O)[C@H](CO)NC(C)=O` [N-AS, N-((2S,3R,E)-1,3-Dihydroxyoctadec-4-en-2-yl)acetamide], for the setting “Aβ-affected human microglia + N-AS”, the “S565 acetylation of COX2, in words” value was “restored”. Further, the “ac-S565 COX2 (western blot)” value is, setting by setting: (human microglia, Ab 50mM +) 1.839 and 1.211 and 1.367 and 1.737 and 1.941 and 1.552; (human microglia, Ab 50mM -) 1.105 and 1.597 and 1.621 and 1.1016 and 1.489 and 0.9364. Besides, under “human microglia, Ab 50mM +, sFig 6c”, the “ac-S565 COX2 (immunofluorescence)” value was 2.003 and 2.188 and 1.708 and 1.496 and 1.357 and 1.768.
